Assay results reported in patent US8999957B2, “Heterocyclic compounds as ERK inhibitors” (Merck Sharp & Dohme Corp., priority 2010, dated 2015).

Target: fully phosphorylated, active Mouse ERK2 protein (Mus musculus (Mouse), UniProt P63085)
Assay: Active ERK2 (aERK) IMAP assay, condition 1
Type: biochemical
Conditions: aERK assay condition 1, 30 μM ATP
Procedure: Active ERK2 (aERK) Assay: (Unless Indicated Otherwise, the Data Provided for aERK was obtained using Condition 1)
Activated ERK2 activity was also determined in the IMAP assay format using the procedure outlined above. […] Reactions proceeded for 30 minutes before termination by addition of 60 μl IMAP detection beads in binding buffer. Plates were read as above after 30 minute binding equilibration.

fully phosphorylated, active Mouse ERK2 protein, sequence (P63085 whole entry): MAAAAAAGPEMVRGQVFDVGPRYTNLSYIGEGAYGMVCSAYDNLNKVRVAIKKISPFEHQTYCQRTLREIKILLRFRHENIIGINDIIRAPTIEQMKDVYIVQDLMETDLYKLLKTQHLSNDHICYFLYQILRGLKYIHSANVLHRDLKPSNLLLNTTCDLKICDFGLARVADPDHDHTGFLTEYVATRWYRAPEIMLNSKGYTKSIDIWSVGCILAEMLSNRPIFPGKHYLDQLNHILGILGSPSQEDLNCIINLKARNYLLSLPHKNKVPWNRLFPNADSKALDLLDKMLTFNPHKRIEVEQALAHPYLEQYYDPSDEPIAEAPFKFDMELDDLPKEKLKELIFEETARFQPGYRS

| SMILES | IC50 |
| --- | --- |
| O=C(N[C@@H]1CCCN(Cc2ccccc2C(F)(F)F)C1)c1ccc2[nH]nc(-c3ccc4c(c3)CCO4)c2c1 | 1000 nM |
| N#Cc1cccc(CN2CCC[C@@H](NC(=O)c3ccc4[nH]nc(-c5ccc6c(c5)CCO6)c4c3)C2)c1 | 999 nM |
| O=C(N[C@@H]1CCCN(Cc2c(F)cccc2F)C1)c1ccc2[nH]nc(-c3ccc4c(c3)CCO4)c2c1 | 173 nM |
| O=C(N[C@@H]1CCCN(Cc2ccc3occc3c2)C1)c1ccc2[nH]nc(-c3ccc4c(c3)CCO4)c2c1 | 22.9 nM |
| O=C(N[C@@H]1CNCC[C@H]1c1ccccc1)c1ccc2[nH]nc(-c3ccc4c(c3)CCO4)c2c1 | 23 nM |
| CN1CC[C@@H](c2ccccc2)[C@H](NC(=O)c2ccc3[nH]nc(-c4ccc5c(c4)CCO5)c3c2)C1 | 118 nM |
| O=C(N[C@@H]1CNCC[C@H]1c1ccccc1)c1ccc2[nH]nc(-c3ccc4c(c3)OCO4)c2c1 | 27.1 nM |
| O=C(N[C@@H]1CNCC[C@H]1c1ccccc1)c1ccc2[nH]nc(-c3ccc4[nH]c(=O)[nH]c4c3)c2c1 | 50.1 nM |
| CC(C)Oc1ccc(-c2n[nH]c3ccc(C(=O)N[C@@H]4CNCC[C@H]4c4ccccc4)cc23)cc1 | 49.9 nM |
| CCN1CC[C@@H](c2ccccc2)[C@H](NC(=O)c2ccc3[nH]nc(-c4ccc(OC(C)C)cc4)c3c2)C1 | 650 nM |
| CC(C)Oc1ccc(-c2n[nH]c3ccc(C(=O)N[C@@H]4CN(C)CC[C@H]4c4ccccc4)cc23)cc1 | 300 nM |
| CC(C)Oc1ccc(-c2n[nH]c3ccc(C(=O)N[C@@H]4CNCC[C@H]4c4ccccc4)cc23)cn1 | 84.9 nM |
| CC(C)Oc1ccc(-c2n[nH]c3ccc(C(=O)N[C@@H]4CN(C)CC[C@H]4c4ccccc4)cc23)cn1 | 300 nM |
| CCN1CC[C@@H](c2ccccc2)[C@H](NC(=O)c2ccc3[nH]nc(-c4ccc(OC(C)C)nc4)c3c2)C1 | 300 nM |
| [2H]C([2H])([2H])N1CC[C@@H](c2ccccc2)[C@H](NC(=O)c2ccc3[nH]nc(-c4ccc(OC(C)C)cc4)c3c2)C1 | 300 nM |
| CC(C)(C)OC(=O)N1CC[C@@H](c2ccccc2)[C@H](NC(=O)c2ccc3[nH]nc(-c4ccc5c(c4)CCO5)c3c2)C1 | 300 nM |
| O=C(N[C@@H]1CNCC[C@H]1c1ccccc1)c1ccc2[nH]nc(-c3ccc4[nH]ncc4c3)c2c1 | 13.7 nM |
| CC(C)Oc1cc(-c2n[nH]c3ccc(C(=O)N[C@@H]4CNCC[C@H]4c4ccccc4)cc23)ccn1 | 141 nM |
| O=C(N[C@@H]1CCCN(c2ccccc2F)C1)c1ccc2[nH]nc(-c3ccncc3)c2c1 | 62.3 nM |
| COc1cccc(F)c1CN1CCCCC(NC(=O)c2ccc3[nH]nc(-c4ccncc4)c3c2)C1 (centres unmarked) | 231 nM |
| O=C(NC1CCCCN(Cc2c(F)cccc2F)C1)c1ccc2[nH]nc(-c3ccncc3)c2c1 (centres unmarked) | 148 nM |
| O=C(NC1CCCCN(Cc2ccccc2F)C1)c1ccc2[nH]nc(-c3ccncc3)c2c1 (centres unmarked) | 79.2 nM |
| O=C(NC1CCCCN(Cc2ccccn2)C1)c1ccc2[nH]nc(-c3ccncc3)c2c1 (centres unmarked) | 369 nM |
| O=C(NC1CCCCN(CCc2ccccc2)C1)c1ccc2[nH]nc(-c3ccncc3)c2c1 (centres unmarked) | 8.72 nM |
| O=C(N[C@@H]1CCCN(Cc2c(F)cccc2F)C1)c1ccc2[nH]nc(-c3ccnc(Cl)c3)c2c1 | 62.3 nM |
| O=C(NC1CCCCN(Cc2ccccc2)C1)c1ccc2[nH]nc(-c3ccncc3)c2c1 (centres unmarked) | 249 nM |
| O=C(NC1CN(C(=O)OCc2ccccc2)CC(F)(F)C1)c1ccc2[nH]nc(-c3ccncc3)c2c1 (centres unmarked) | 105 nM |

| SMILES | IC50 |
| --- | --- |
| COc1cccc(F)c1CN1CC(NC(=O)c2ccc3[nH]nc(-c4ccncc4)c3c2)CC(F)(F)C1 (centres unmarked) | 17.4 nM |
| O=C(NC1CN(Cc2c(F)cccc2F)CC(F)(F)C1)c1ccc2[nH]nc(-c3ccncc3)c2c1 (centres unmarked) | 241 nM |
| O=C(N[C@@H]1CCCNC1)c1ccc2[nH]nc(-c3ccncc3)c2c1 | 835 nM |
| O=C(NC1CCCCN(CCCc2ccccc2)C1)c1ccc2[nH]nc(-c3ccncc3)c2c1 (centres unmarked) | 72.5 nM |
| Cc1cc(-c2n[nH]c3ccc(C(=O)N[C@@H]4CCCN(CC(O)c5ccccc5F)C4)cc23)ccn1 (some centres unmarked) | 181 nM |
| COc1cccc(F)c1CN1C[C@H](NC(=O)c2ccc3[nH]nc(-c4ccc5nccn5c4)c3c2)C[C@@H](C(F)(F)F)C1 | 181 nM |
| COc1cccc(F)c1CN1CCC(O[Si](C)(C)C(C)(C)C)C(NC(=O)c2ccc3[nH]nc(-c4ccc5nccn5c4)c3c2)C1 (centres unmarked) | 318 nM |
| COc1cccc(F)c1CN1CCC(O)C(NC(=O)c2ccc3[nH]nc(-c4ccc5nccn5c4)c3c2)C1 (centres unmarked) | 42.1 nM |
| COc1cccc(F)c1CN1CCC(F)C(NC(=O)c2ccc3[nH]nc(-c4ccc5nccn5c4)c3c2)C1 (centres unmarked) | 16.3 nM |
| COC(=O)[C@@H]1CC[C@@H](NC(=O)c2ccc3[nH]nc(-c4ccncc4)c3c2)CN1 | 144 nM |
| O=C(NC1CCCCN(CCc2ccccc2F)C1)c1ccc2[nH]nc(-c3ccncc3)c2c1 (centres unmarked) | 5 nM |
| COC(=O)[C@@H]1CC[C@@H](NC(=O)c2ccc3[nH]nc(-c4ccncc4)c3c2)CN1Cc1ccccc1 | 40.7 nM |
| COc1cccc(F)c1CN1CCC[C@@H](NC(=O)c2ccc3[nH]nc(-c4ccn5ncnc5c4)c3c2)C1 | 68.9 nM |
| COc1cccc(F)c1CN1CCC[C@@H](NC(=O)c2ccc3[nH]nc(-c4ccc5nc(C)nn5c4)c3c2)C1 | 22.2 nM |
| COc1cccc(F)c1CN1CCC[C@@H](NC(=O)c2ccc3[nH]nc(-c4ccc5nncn5c4)c3c2)C1 | 6.46 nM |
| COc1cccc(F)c1CN1CC(NC(=O)c2ccc3[nH]nc(-c4ccnc(C)c4)c3c2)CCC1C (centres unmarked) | 26.8 nM |
| COc1cccc(F)c1CN1C[C@H](NC(=O)c2ccc3[nH]nc(-c4ccc5nccn5c4)c3c2)CCC1=O | 69.2 nM |
| O=C(NC12CC1CCN(Cc1ccccc1)C2)c1ccc2[nH]nc(-c3ccc4nccn4c3)c2c1 (centres unmarked) | 200 nM |
| CN(C)C(=O)[C@@H]1CC[C@@H](NC(=O)c2ccc3[nH]nc(-c4ccncc4)c3c2)CN1Cc1ccccc1 | 51.3 nM |
| COc1ccccc1CCN1CCCCC(NC(=O)c2ccc3[nH]nc(-c4ccncc4)c3c2)C1 (centres unmarked) | 31.1 nM |
| CC(C)C(NC(=O)[C@@H]1CC[C@@H](NC(=O)c2ccc3[nH]nc(-c4ccncc4)c3c2)CN1Cc1ccccc1)C(C)C | 262 nM |
| O=C(NC1CCCCN(CC2CCc3ccccc32)C1)c1ccc2[nH]nc(-c3ccncc3)c2c1 (centres unmarked) | 85.4 nM |
| O=C(N[C@@H]1CC[C@H](C(=O)NCc2ccccc2)NC1)c1ccc2[nH]nc(-c3ccncc3)c2c1 | 371 nM |
| O=C(N[C@@H]1CC[C@@H](C(=O)NCc2ccccc2)NC1)c1ccc2[nH]nc(-c3ccncc3)c2c1 | 120 nM |
| COc1cccc(F)c1CN1C[C@@H](C)C[C@@H](NC(=O)c2ccc3[nH]nc(-c4ccc5nc(C)sc5c4)c3c2)C1 | 3.67 nM |
| COc1cccc(F)c1CN1C[C@H](NC(=O)c2ccc3[nH]nc(-c4ccc5nccn5c4)c3c2)CC(F)(F)C1 | 23.9 nM |
| O=C(N[C@H]1CN(Cc2c(F)cccc2F)CC(F)(F)C1)c1ccc2[nH]nc(-c3ccc4nccn4c3)c2c1 | 234 nM |

| SMILES | IC50 |
| --- | --- |
| O=C(NC12CC1CCN(Cc1c(F)cccc1F)C2)c1ccc2[nH]nc(-c3ccc4nccn4c3)c2c1 (centres unmarked) | 136 nM |
| COc1cccc(F)c1CN1CCC2CC2(NC(=O)c2ccc3[nH]nc(-c4ccc5nccn5c4)c3c2)C1 (centres unmarked) | 86 nM |
| CN1C[C@H](NC(=O)c2ccc3[nH]nc(-c4ccncc4)c3c2)CC[C@H]1C(=O)NCc1ccccc1 | 350 nM |
| COc1ccccc1CN1CC(NC(=O)c2ccc3[nH]nc(-c4ccncc4)c3c2)CC(F)(F)C1 (centres unmarked) | 167 nM |
| Cc1cccc(C)c1CN1CC(NC(=O)c2ccc3[nH]nc(-c4ccncc4)c3c2)CC(F)(F)C1 (centres unmarked) | 457 nM |
| COC(=O)[C@@H]1CC[C@@H](NC(=O)c2ccc3[nH]nc(-c4ccncc4)c3c2)CN1Cc1c(F)cccc1OC | 40.5 nM |
| COc1cccc(F)c1CN1C[C@H](C)C[C@H](NC(=O)c2ccc3[nH]nc(-c4ccc5ncsc5c4)c3c2)C1 | 15.2 nM |
| Cn1cc2cc(-c3n[nH]c4ccc(C(=O)N[C@@H]5C[C@H](C(F)(F)F)CN(Cc6c(F)cccc6F)C5)cc34)ccc2n1 | 39.8 nM |
| Cn1cc2cc(-c3n[nH]c4ccc(C(=O)N[C@H]5C[C@@H](C(F)(F)F)CN(Cc6c(F)cccc6F)C5)cc34)ccc2n1 | 375 nM |
| COc1cccc(F)c1CN1C[C@H](NC(=O)c2ccc3[nH]nc(-c4ccncc4)c3c2)CCC1CO (some centres unmarked) | 3.58 nM |
| O=C(N[C@@H]1CCCN(Cc2c(F)cccc2F)C1)c1ccc2[nH]nc(-c3ccncc3)c2c1 | 36.2 nM |
| O=C(NC1CCCCN(CCc2c(F)cccc2F)C1)c1ccc2[nH]nc(-c3ccncc3)c2c1 (centres unmarked) | 43.3 nM |
| COC[C@H]1CC[C@@H](NC(=O)c2ccc3[nH]nc(-c4ccncc4)c3c2)CN1Cc1c(F)cccc1OC | 456 nM |
| COc1cccc(F)c1CN1CCC[C@@H](NC(=O)c2ccc3[nH]nc(-c4ccncc4)c3c2)C1 | 13.9 nM |
| COc1cccc(F)c1CN1C[C@H](C)C[C@H](NC(=O)c2ccc3[nH]nc(-c4ccc5nsnc5c4)c3c2)C1 | 73.6 nM |
| COc1cccc(F)c1CN1C[C@@H](C)C[C@@H](NC(=O)c2ccc3[nH]nc(-c4ccn5ncnc5c4)c3c2)C1 | 15.1 nM |
| COc1cccc(F)c1CN1C[C@@H](C)C[C@@H](NC(=O)c2ccc3[nH]nc(-c4ccc5nonc5c4)c3c2)C1 | 128 nM |
| COc1cccc(F)c1CN1C[C@@H](C)C[C@@H](NC(=O)c2ccc3[nH]nc(-c4nc5ccccc5s4)c3c2)C1 | 61.3 nM |
| Cn1cnnc1CN1CCC[C@@H](NC(=O)c2ccc3[nH]nc(-c4ccncc4)c3c2)C1 | 231 nM |
| COCCOc1cccc(F)c1CN1CCC[C@@H](NC(=O)c2ccc3[nH]nc(-c4ccncc4)c3c2)C1 | 16.9 nM |
| CCOC(=O)C1CCN(Cc2ccccc2)CC1NC(=O)c1ccc2[nH]nc(-c3ccncc3)c2c1 (centres unmarked) | 191 nM |
| O=C(NC1COCCN(CCc2c(F)cccc2F)C1)c1ccc2[nH]nc(-c3ccncc3)c2c1 (centres unmarked) | 20.8 nM |
| O=C(NC1COCCN(CCc2ccccc2F)C1)c1ccc2[nH]nc(-c3ccncc3)c2c1 (centres unmarked) | 9.84 nM |
| O=C(NC1COCCN(CCc2cccc(F)c2)C1)c1ccc2[nH]nc(-c3ccncc3)c2c1 (centres unmarked) | 61.6 nM |
| Cc1cc(-c2n[nH]c3ccc(C(=O)NC4CC[C@H]5CC[C@@H]4N5Cc4ccccc4F)cc23)ccn1 (some centres unmarked) | 9.1 nM |
| COc1cccc(F)c1CN1C2CCC(NC(=O)c3ccc4[nH]nc(-c5ccnc(C)c5)c4c3)C1CC2 (centres unmarked) | 20.4 nM |
